Columns and labels:
[1] = tested on: human umbilical vein endothelial cell (HUVEC) proliferation; design: method as in PMID 16951187; settings: cited from earlier work
[2] = tested on: VEGFR3; design: method as in PMID 16951187; settings: cited from earlier work
[3] = motesanib plasma pharmacokinetics in patients; type: in vivo, human
Method: Plasma motesanib and gemcitabine concentrations were analyzed using a validated liquid chromatography/tandem mass spectrometry (LC-MS/MS) method, respectively. […] All pharmacokinetic parameter estimates were calculated using standard noncompartmental methods and WinNonlin Professional software on […] (Version 5.1.1, Pharsight Corporation, Mountain View, Calif, USA).

[4] = tested on: advanced solid tumors; assay: tumor response per modified RECIST; settings: for Confirmed complete response / Confirmed objective response, % (95% CI) / Confirmed partial response / Durable stable disease (≥24 weeks) / Progressive disease / Stable disease / Unevaluable / Clinical benefit rate (CR + PR + durable SD): gemcitabine/cisplatin
[5] = tested on: cytochrome P 450 3A; settings: cited from earlier work
[6] = motesanib 50 mg QD (n = 8) + panitumumab
[7] = motesanib 75 mg BID (n = 2) + panitumumab
[8] = motesanib 75 mg QD (n = 6) + panitumumab
[9] = motesanib 100 mg QD (n = 6) + panitumumab
[10] = motesanib 125 mg QD (n = 11) + panitumumab

## CC1(C)CNc2cc(NC(=O)c3cccnc3NCc3ccncc3)ccc21 [motesanib]
[1]
  90% inhibitory concentration (IC90) for HUVEC proliferation: […]
  IC50 for HUVEC proliferation: […]
[2]
  IC50: […]
[3]; human, in vivo, mean daily motesanib C 24 (above IC50 for HUVEC proliferation)
  concentration at 24 h: […]
[3]; human, in vivo, mean daily motesanib C 24 (higher than IC90 for HUVEC proliferation)
  concentration at 24 h: […]
[3]; human, in vivo, mean estimated terminal elimination half-life (t 1/2,z)
  half-life: […]
[3]; human, in vivo, po
  Tmax: […]
[3]; motesanib 75 mg QD (n = 3 − 6), single dose, + panitumumab, gemcitabine/cisplatin
  C max, mean (SD): 186 (92) ng/mL
[4]; all 41 patients
  patients with durable (≥24 weeks) stable disease: six
[4]; all 41 patients incl. 0-mg cohort
  patients with confirmed partial response: […]
[4]; all 41 patients incl. 0-mg cohort, 10 patients, 95% CI, 12.4–40.3
  confirmed objective response: […]
[4]; all 41 patients, twenty patients
  patients with best response of stable disease: 49%
[4]; all patients
  median progression-free survival: […]
[4]; all patients, 95% CI: 2.8—not estimable
  Kaplan-Meier estimate of median progression-free survival: […]
[4]; all patients, breast cancer
  patients with complete response as best objective response: One
[4]; [6]
  Confirmed complete response: 0 (0) n (%)
  Confirmed objective response, % (95% CI): 0 (0–36.9) %
  Confirmed partial response: 0 (0) n (%)
  Durable stable disease (≥24 weeks): 0 (0) n (%)
  Unevaluable: 0 (0) n (%)
[4]; [7]
  Confirmed complete response: 0 (0) n (%)
  Durable stable disease (≥24 weeks): 0 (0) n (%)
  Progressive disease: 0 (0) n (%)
  Unevaluable: 0 (0) n (%)
[4]; [8]
  Confirmed complete response: 0 (0) n (%)
  Progressive disease: 0 (0) n (%)
[4]; [9]
  Progressive disease: 0 (0) n (%)
  Unevaluable: 0 (0) n (%)
[4]; [10]
  Confirmed complete response: 0 (0) n (%)
[4]; of the 41 patients enrolled
  patients with complete response, partial response, or stable disease as best response: […]
[5]
  route of metabolism: […]
